Test system: Vγ9Vδ2 T cells
Assay: Activation of Vγ9Vδ2 T cells (TNF-α, flow cytometry) by PC3 prostate carcinoma cells co-cultured with expanded PBMC
Assay type: cell-based, human
Description: PC3 cells were transduced with either LV-vector, LV-BTN3A3 (R381H), or LV-BTN3A3 (WT). Three days after transduction, cells were treated with or without 1 μM zoledronic acid. After 24 hours, the transduced PC3 cells were co-cultured with 5×10^5 PBMC cells and IL-2 in a round bottom 96 well plate for 4 hours. The PBMC cells were pre-stimulated with zoledronic acid and IL-2 for 11 days to expand Vγ9Vδ2 T cells. After staining for Vγ9Vδ2 and TNF-α using fluorophore-conjugated anti TCR-Vδ2 and anti-TNF-α antibody, cells were analyzed via flow cytometry. Live cells were gated, and Vδ2+ and TNF-α+ cells were selected on a dot blot. The activated cytotoxic Vγ9Vδ2 T cells appeared in the upper right quadrant of flow cytograms. Without zoledronic acid, the percent of TNF-α expressing Vγ9Vδ2 T cells was 0.37% with LV-vector, 26.7% with BTN3A3 (R381H), and 0.44% with LV-BTN3A3 (WT). With zoledronic acid, the percent of TNF-α expressing Vγ9Vδ2 T cells was 8.91% with LV-vector, 35.2% with BTN3A3 (R381H), and 8.76% with LV-BTN3A3 (WT).
PC3 cells were transduced with LV-vector, LV-BTN3A3 (R381H), or LV-shFDPS-BTN3A3 (R381H). Three days after transduction, cells were treated with or without 1 μM zoledronic acid. After 24 hours, the transduced PC3 cells were co-cultured with 5×10^5 PBMC cells and IL-2 in a round bottom 96 well plate for 4 hours. The PBMC cells were pre-stimulated with zoledronic acid and IL-2 for 11 days to expand Vγ9Vδ2 T cells. After staining for Vγ9Vδ2 and TNF-α using fluorophore-conjugated anti TCR-Vδ2 and anti-TNF-α antibody, cells were analyzed via flow cytometry. Live cells were gated, and Vδ2+ and TNF-α+ cells were selected on a dot blot. The activated cytotoxic Vγ9Vδ2 T cells appeared in the upper right quadrant of flow cytograms. Without zoledronic acid, the percent of TNF-α expressing Vγ9Vδ2 T cells was 0.1% with LV-vector, 21.1% with BTN3A3 (R381H), and 18.2% with the combination of LV-shFDPS-BTN3A3 (R381H). With zoledronic acid, the percent of TNF-α expressing Vγ9Vδ2 T cells was 13.6% with LV-vector, 25.5% with BTN3A3 (R381H), and 39.6% with the combination of LV-shFDPS-BTN3A3 (R381H).
PC3 cells were transduced with LV-shFDPS or LV-shFDPS-IL-2. Three days after transduction, cells were treated with or without 1 μM zoledronic acid. After 24 hours, the transduced PC3 cells were co-cultured with 5×10^5 PBMC cells and with or without IL-2 in a round bottom 96 well plate for 4 hours. The PBMC cells were pre-stimulated with zoledronic acid and IL-2 for 11 days to expand Vγ9Vδ2 T cells. After staining for Vγ9Vδ2 and TNF-α using fluorophore-conjugated anti TCR-Vδ2 and anti-TNF-α antibody, cells were analyzed via flow cytometry. Live cells were gated, and Vδ2+ and TNF-α+ cells were selected on a dot blot. The activated cytotoxic Vγ9Vδ2 T cells appeared in the upper right quadrant of flow cytograms. With only zoledronic acid, the percent of TNF-α expressing Vγ9Vδ2 T cells was 24.6% with LV-shFDPS and 46.8% with LV-shFDPS-IL-2. With zoledronic acid and IL-2, the percent of TNF-α expressing Vγ9Vδ2 T cells was 48.6% with LV-shFDPS and 41% with LV-shFDPS-IL-2.
PC3 cells were transduced with LV-vector, LV-shFDPS, or LV-shFDPS-IL-15. Three days after transduction, cells were treated with or without 1 μM zoledronic acid. After 24 hours, the transduced PC3 cells were co-cultured with 5×10^5 PBMC cells and with or without IL-2 in a round bottom 96 well plate for 4 hours. The PBMC cells were pre-stimulated with zoledronic acid and IL-2 for 11 days to expand Vγ9Vδ2 T cells. After staining for Vγ9Vδ2 and TNF-α using fluorophore-conjugated anti TCR-Vδ2 and anti-TNF-α antibody, cells were analyzed via flow cytometry. Live cells were gated, and Vδ2+ and TNF-α+ cells were selected on a dot blot. The activated cytotoxic Vγ9Vδ2 T cells appeared in the upper right quadrant of flow cytograms. With only zoledronic acid, the percent of TNF-α expressing Vγ9Vδ2 T cells was 10% with LV-vector, 13% with LV-shFDPS, and 14.6% with LV-shFDPS-IL-15. […]

[1] = Example 25, FIG. 29, LV-FDPS shRNA #4 transduced PC3 cells, drug 1 μM, 24 hours
[2] = Example 25, FIG. 29, LV-control transduced PC3 cells, 1 μM, 24 hours, untreated 1.73%

Compound	percent of TNF-α expressing Vγ9Vδ2 T cells [1]	percent of TNF-α expressing Vγ9Vδ2 T cells [2]	percent of TNF-α expressing Vγ9Vδ2 T cells (Example 25, FIG. 29, LV-FDPS shRNA #4 transduced PC3 cells, drug 5 μM, 24 hours)	percent of TNF-α expressing Vγ9Vδ2 T cells (Example 25, FIG. 29, LV-control transduced PC3 cells, 5 μM, 24 hours, untreated 1.73%)	percent of TNF-α expressing Vγ9Vδ2 T cells (Example 3, LV-vector (control) transduced PC3 cells, 1 μM zoledronic acid)	percent of TNF-α expressing Vγ9Vδ2 T cells (Example 5, LV-vector (control) transduced PC3 cells, 1 μM zoledronic acid)	percent of TNF-α expressing Vγ9Vδ2 T cells (Example 8, LV-vector (control) transduced PC3 cells, only zoledronic acid (1 μM))	percent of TNF-α expressing Vγ9Vδ2 T cells (Example 8, LV-vector (control) transduced PC3 cells, zoledronic acid (1 μM) and IL-2)	percent of TNF-α expressing Vγ9Vδ2 T cells (Example 19, LV-control transduced PC3 cells, 1 μM zoledronic acid)	percent of TNF-α expressing Vγ9Vδ2 T cells (Example 23, LV-control transduced PC3 cells, 1 μM zoledronic acid)
COC(=O)[C@H](CCSC)NC(=O)c1ccc(NC[C@@H](N)CS)cc1-c1ccccc1 [FT1277]	2.44%	1.64%								
C=C(CC[C@]12O[C@H](C(=O)O)[C@@](O)(C(=O)O)[C@](C(=O)O)(O1)[C@H](OC(=O)/C=C/[C@@H](C)C[C@@H](C)CC)[C@H]2O)[C@@H](OC(C)=O)[C@H](C)Cc1ccccc1 [zaragozic acid]			2.66%	1.57%						
O=P(O)(O)C(O)(Cn1ccnc1)P(=O)(O)O [zoledronic acid]	50.3%	2.87%			8.91%	13.6%	10%	14.5%	5.71%	8.66%
